The assay addresses Protein-arginine deiminase type-1 (Homo sapiens) (UniProt Q9ULC6). Description: PubChem AID 651868. The note with it: recombinant PAD1, citrulline colorimetric, time-dependent inactivation; active compounds read high.

The results in this text go back to PubChem BioAssay AID651868 (The Scripps Research Institute Molecular Screening Center, 2012).

Chain of Protein-arginine deiminase type-1 (Homo sapiens) (Q9ULC6 whole entry, looked up): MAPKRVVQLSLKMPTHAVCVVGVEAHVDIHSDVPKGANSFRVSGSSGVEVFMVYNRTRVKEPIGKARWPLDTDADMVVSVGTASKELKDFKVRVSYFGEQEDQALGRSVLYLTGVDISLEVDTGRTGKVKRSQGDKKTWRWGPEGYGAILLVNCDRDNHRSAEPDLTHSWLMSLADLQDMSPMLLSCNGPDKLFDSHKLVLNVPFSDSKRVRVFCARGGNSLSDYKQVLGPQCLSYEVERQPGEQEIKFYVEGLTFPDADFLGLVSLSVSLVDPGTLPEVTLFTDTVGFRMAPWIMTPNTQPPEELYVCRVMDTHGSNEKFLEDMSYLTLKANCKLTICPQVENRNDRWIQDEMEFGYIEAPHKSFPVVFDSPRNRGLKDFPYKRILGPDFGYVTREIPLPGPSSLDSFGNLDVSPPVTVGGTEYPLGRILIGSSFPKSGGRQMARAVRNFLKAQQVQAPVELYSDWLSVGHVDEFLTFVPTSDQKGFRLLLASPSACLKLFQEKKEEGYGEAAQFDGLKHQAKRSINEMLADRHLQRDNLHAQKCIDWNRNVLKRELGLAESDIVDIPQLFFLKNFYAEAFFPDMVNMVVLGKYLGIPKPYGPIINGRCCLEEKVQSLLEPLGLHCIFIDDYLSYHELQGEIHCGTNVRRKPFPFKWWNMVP

For orientation: kinact/KI means the second-order rate constant of inactivation. Regarding `NC1=CC(=O)c2ccc(-c3cccc(C(=O)O)n3)nc2C1=O`, the kinact/KI was 58.3 M⁻¹ s⁻¹.
